# Patent US4904673A, “Agent for treating bradycardia and bradyarrhythmia” (Dr. Karl Thomae, GmbH, priority 1988, dated 1990)
# Key:
# [1] = test system: acetylcholine effect on bronchi; experiment: Inhibition of the effect of acetylcholine on bronchi (expiration resistance, Konzett-Rossler) in anaesthetised guinea pigs; format: in vivo, guinea pig; conditions: Cavia porcellus, iv, 5 min, 10 microgram/kg acetylcholine i.v. and intra-arterially 5 minutes after test substance, read-out: -log ED50 Bronchi (converted)
# Method: (§1) Substances with antimuscarinic properties inhibit the effects of agonists supplied exogenically or of acetylcholine, which is released from cholinergic nerve endings. The following is a description of an "in vivo" method which is suitable for the detection of cardioselective antimuscarinic agents.
# (§2) Inhibition of the effect of acetylcholine on the bladder, bronchi and heart rate in guinea pigs
# (§3) 5 minutes after the administration of the test substance, 10 microgram/kg of acetylcholine were simultaneously injected intravenously and intra-arterially into anaesthetised guinea pigs. The heart rate was recorded directly by extracorporeal derivation of the ECG, as were the expiration resistance according to Konzett-Rossler and the contraction of the exposed bladder. In order to determine the inhibition of the acetylcholine activity on the organs under investigation, dosage/activity curves were recorded and from them -log ED50 values were determined. For the results see Table II.
# [2] = biological target: T1, muscarinic receptors in heart (Rattus norvegicus, UniProt P10980); experiment: Receptor binding test in vitro, 3H-NMS displacement, whole heart homogenate; conditions: rat whole heart homogenate 1:400; 0.3 nanomolar 3H-NMS; 30° C., 45 minutes; read-out: Receptor Binding Tests IC50 Heart
# T1 construct: The whole heart was cut up with scissors; from tissue; host or cells: whole heart of male Sprague-Dawley rats, homogenate diluted 1:400
# T1 sequence (P10980 1-466): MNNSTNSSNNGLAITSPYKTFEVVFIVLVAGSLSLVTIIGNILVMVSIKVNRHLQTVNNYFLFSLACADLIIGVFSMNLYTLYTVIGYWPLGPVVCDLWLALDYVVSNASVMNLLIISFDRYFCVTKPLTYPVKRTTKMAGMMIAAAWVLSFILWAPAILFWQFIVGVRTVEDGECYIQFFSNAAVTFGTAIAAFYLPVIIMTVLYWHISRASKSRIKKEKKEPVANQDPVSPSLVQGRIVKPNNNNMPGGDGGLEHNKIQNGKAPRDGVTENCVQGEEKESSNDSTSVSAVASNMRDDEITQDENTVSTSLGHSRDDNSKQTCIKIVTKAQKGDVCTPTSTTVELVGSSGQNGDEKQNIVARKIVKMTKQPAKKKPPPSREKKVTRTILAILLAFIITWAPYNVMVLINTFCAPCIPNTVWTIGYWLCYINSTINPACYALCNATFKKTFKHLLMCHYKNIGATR
# Method: (§4) The organs were donated by male Sprague-Dawley rats weighing 180-220 g. […] The whole heart was cut up with scissors. All the organs were then homogenised in a Potter apparatus.
# (§5) For the binding test the homogenised organs were diluted as follows:
# (§6) Incubation lasted 45 minutes. The radioligand used was 0.3 nanomolar ^3 H-N-methylscopolamine (^3 H-NMS). […] The filters were rinsed with cold buffer and their radioactivity was determined. It represents the sum of specific and non-specific binding of ^3 H-NMS.
# (§7) Each measurement was taken four times. […] They represent that concentration of test substance at which the specific binding of ^3 H-NMS to the muscarinic receptors in the various organs was inhibited by 50%.
# [3] = test system: acetylcholine effect on bladder; experiment: Inhibition of the effect of acetylcholine on contraction of the exposed bladder in anaesthetised guinea pigs; format: in vivo, guinea pig; conditions: Cavia porcellus, iv, 5 min, 10 microgram/kg acetylcholine i.v. and intra-arterially 5 minutes after test substance, read-out: -log ED50 Bladder (converted)
# Method: as §1, §2, §3
# [4] = biological target: muscarinic receptors in cerebral cortex; experiment: Receptor binding test in vitro, 3H-NMS displacement, cerebral cortex homogenate; conditions: rat cerebral cortex homogenate 1:3000; 0.3 nanomolar 3H-NMS; 30° C., 45 minutes; read-out: Receptor Binding Tests IC50 Cortex
# Method: The organs were donated by male Sprague-Dawley rats weighing 180-220 g. After the heart and subman-dibular gland and cerebral cortex had been removed, all other steps were carried out in ice cold Hepes HCl buffer (pH 7.4; 100 millimolar NaCl, 10 millimolar MgCl2). The whole heart was cut up with scissors. All the organs were then homogenised in a Potter apparatus.
# as §5
# The homogenised organs were incubated at a certain concentration of the radioligand and at a series of concentrations of the non-radioactive test substances in an Eppendorf centrifuge tube at 30° C. Incubation lasted 45 minutes. The radioligand used was 0.3 nanomolar ^3 H-N-methylscopolamine (^3 H-NMS). Incubation was ended by the addition of ice cold buffer followed by vaccum filtration. The filters were rinsed with cold buffer and their radioactivity was determined. It represents the sum of specific and non-specific binding of ^3 H-NMS.
# The proportion of non-specific binding was defined as the radioactivity which was bound in the presence of 1 micromolar quinuclidinyl-benzylate. Each measurement was taken four times. The IC^50 values of the non-labelled test substances were determined graphically. They represent that concentration of test substance at which the specific binding of ^3 H-NMS to the muscarinic receptors in the various organs was inhibited by 50%.
# [5] = test system: acetylcholine effect on heart rate; experiment: Inhibition of the effect of acetylcholine on heart rate in anaesthetised guinea pigs; format: in vivo, guinea pig; conditions: Cavia porcellus, iv, 5 min, 10 microgram/kg acetylcholine i.v. and intra-arterially 5 minutes after test substance, heart rate by ECG, read-out: -log ED50 Heart (converted)
# Method: as §1, §2, §3
# [6] = biological target: T2, muscarinic receptors in submandibular gland (Rattus norvegicus, UniProt P08483); experiment: Receptor binding test in vitro, 3H-NMS displacement, submandibular gland homogenate; conditions: rat submandibular gland homogenate 1:400; 0.3 nanomolar 3H-NMS; 30° C., 45 minutes; read-out: Receptor Binding Tests IC50 Submandibular gland
# T2 construct: All the organs were then homogenised in a Potter apparatus; from tissue; host or cells: submandibular gland of male Sprague-Dawley rats, homogenate diluted 1:400
# Method: as §4, §5
# Submandibular gland 1:400
# as §6, §7
# T2 sequence (P08483 whole entry): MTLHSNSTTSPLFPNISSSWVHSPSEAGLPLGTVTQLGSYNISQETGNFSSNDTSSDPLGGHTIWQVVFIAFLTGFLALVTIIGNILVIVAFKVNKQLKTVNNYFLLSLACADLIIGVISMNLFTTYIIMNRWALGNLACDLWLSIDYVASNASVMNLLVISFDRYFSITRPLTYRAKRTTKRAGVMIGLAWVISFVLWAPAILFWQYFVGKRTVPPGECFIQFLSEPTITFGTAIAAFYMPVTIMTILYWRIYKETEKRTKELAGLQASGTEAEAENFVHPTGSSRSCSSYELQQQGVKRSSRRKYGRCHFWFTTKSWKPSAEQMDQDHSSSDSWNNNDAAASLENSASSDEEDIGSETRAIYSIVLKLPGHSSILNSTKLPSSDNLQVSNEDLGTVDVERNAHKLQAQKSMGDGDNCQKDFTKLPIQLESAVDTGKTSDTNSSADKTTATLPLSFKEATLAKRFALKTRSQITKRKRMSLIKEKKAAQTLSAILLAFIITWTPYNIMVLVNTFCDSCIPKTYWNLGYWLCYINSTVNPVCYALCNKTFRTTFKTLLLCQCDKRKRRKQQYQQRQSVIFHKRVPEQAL
SMILES,ED50 [1] [µmol/kg],IC50 [2] [nM],ED50 [3] [µmol/kg],IC50 [4] [nM],ED50 [5] [µmol/kg],IC50 [6] [nM]
"CCN(CCCC(=O)N1CCC(C(=O)N(C)C)CC1)C(C)Cc1ccc(OC)cc1 (racemic) [A, (±)-1-[4-[ethyl[2-(4-methoxyphenyl)-1-methylethyl]amino]-1-oxobutyl]-N,N-dimethyl-4-piperidine carboxamide]",0.148,10,0.513,50,0.0646,300
"CN1[C@@H]2CC[C@H]1C[C@@H](OC(=O)C(CO)c1ccccc1)C2 (stereo partly shown) [B, atropine, reference compound]",,,,2,,
